Reference: US20090036525A1, “Non-Natural Amino Acid Derivatives” (POXIMAGEN LTD., priority 2006, published 2009)
Where a SMILES comes first, the peptide text is derived from it. [ ]: non-standard residue; d: D form. Dopa = N[C@@H](Cc1ccc(O)c(O)c1)C(=O)O; Cha = N[C@@H](CC1CCCCC1)C(=O)O

System: 6-OHDA-lesioned rats
Assay: Induction of rotational activity in 6-OHDA-lesioned rats
Assay type: in vivo, rat
Conditions: 63.4 μmole/kg, after benserazide 10 mg/kg, rotations over 4 hours

Row | SMILES | AUC activity (as % of AUC activity L-DOPA) (p.o.) | Peak activity (as % of maximal activity L-DOPA) (p.o.) | duration of activity (as % of duration of activity L-DOPA) (p.o.) | AUC activity (as % of AUC activity L-DOPA) (i.p.) | Peak activity (as % of maximal activity L-DOPA) (i.p.) | duration of activity (as % of duration of activity L-DOPA) (i.p.)
1 | COC(=O)[C@H](Cc1ccc(O)c(O)c1)NC(=O)[C@@H](N)[C@@H](C)c1ccccc1.Cl [Example 12, (1S,2S)-1-[(S)-2-(3,4-Dihydroxyphenyl)-1-methoxycarbonylethylcarbamoyl]-2-phenylpropylammonium chloride] | 50 % of L-DOPA | 62 % of L-DOPA | 46 % of L-DOPA | – | – | –
2 | COC(=O)[C@H](Cc1ccc(OC(C)=O)c(OC(C)=O)c1)NC(=O)[C@@H](N)CC1CCCCC1.Cl [Example 2, (S)-2-Cyclohexyl-1-[(S)-2-(3,4-diacetoxyphenyl)-1-methoxycarbonyl-ethylcarbamoyl]-ethylammonium chloride] | – | – | – | 32 % of L-DOPA | 31 % of L-DOPA | 27 % of L-DOPA
3 | COC(=O)[C@H](Cc1ccc(O)c(O)c1)NC(=O)[C@@H](N)CC1CCCCC1.Cl [Example 1, (S)-2-Cyclohexyl-1-[(S)-2-(3,4-dihydroxyphenyl)-1-methoxycarbonylethyl-carbamoyl]-ethylammonium chloride] (H-[Cha]-[Dopa]-OMe) | 40 % of L-DOPA | 53 % of L-DOPA | 45 % of L-DOPA | – | – | –
4 | COC(=O)[C@H](Cc1ccc(O)c(O)c1)NC(=O)[C@@H](N)[C@H](C)c1ccccc1.Cl [Example 13, (1S,2R)-1-[(S)-2-(3,4-Dihydroxyphenyl)-1-methoxycarbonyl-ethylcarbamoyl]-2-phenylpropylammonium; chloride] | 106 % of L-DOPA | 141 % of L-DOPA | 76 % of L-DOPA | – | – | –
